The target of the test is PKM2 (Homo sapiens, UniProt P14618). Description: PKM2 activation biochemical assay (AC50 / max. response vs fructose 1,6-bisphosphate). The conditions noted are these: for Max. Resp. (%): % maximum response in a biochemical assay as compared with Fructose 1,6-bisphosphate.
The mark [1] stands for this setting: biochemical assay, read-out: PKM2 AC50.

What is called AC50 is the concentration at which the activity in the assay is half-maximal.

Structures are written as SMILES. Read-outs that look alike come from different tables or passages of the source. A value given as a limit tells only on which side of the number the result lay.

Sequence of PKM2 (P14618 whole entry): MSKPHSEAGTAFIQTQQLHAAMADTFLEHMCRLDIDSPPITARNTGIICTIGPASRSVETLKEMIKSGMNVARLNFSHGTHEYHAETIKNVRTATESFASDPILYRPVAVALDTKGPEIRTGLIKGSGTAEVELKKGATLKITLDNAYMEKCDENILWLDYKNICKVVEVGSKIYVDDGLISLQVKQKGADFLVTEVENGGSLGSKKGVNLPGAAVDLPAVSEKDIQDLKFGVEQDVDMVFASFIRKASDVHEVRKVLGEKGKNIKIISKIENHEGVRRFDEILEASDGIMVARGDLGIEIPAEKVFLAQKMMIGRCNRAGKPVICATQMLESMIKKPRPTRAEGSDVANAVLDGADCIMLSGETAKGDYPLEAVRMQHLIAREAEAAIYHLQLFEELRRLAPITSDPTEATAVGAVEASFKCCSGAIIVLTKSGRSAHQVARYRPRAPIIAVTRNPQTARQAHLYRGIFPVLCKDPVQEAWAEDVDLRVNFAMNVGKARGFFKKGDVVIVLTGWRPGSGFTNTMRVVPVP

For `O=C(c1cc(C(F)(F)F)n[nH]1)N(CCC1CCS(=O)(=O)C1)Cc1ncccc1Cl` (stereo not drawn) [Compound 92], the “Max. Resp. (%)” value is 74%. Also, the half-maximal activity concentration (AC50) under setting [1] was 1290 nM.
Regarding `O=C(CCSC(=S)NCc1cccnc1)c1c[nH]c2ccccc12` [PMA31], the concentration at half-maximal activity (AC50) under setting [1] was above 20000 nM.
For the compound `Nc1cccc(Cl)c1CN(CC1CCN1)C(=O)c1cc(C(F)(F)F)n[nH]1` (stereo not drawn) [Compound 233], the “Max. Resp. (%)” value amounted to 75%. Under setting [1], the concentration at half-maximal activity (AC50) was 930 nM.
In the case of `CC(C)(C)CN(Cc1cccc2[nH]ccc12)C(=O)c1cc(C(F)(F)F)n[nH]1` [Compound 13], the “Max. Resp. (%)” value was 33%. Besides, the concentration at half-maximal activity (AC50) under setting [1] worked out at 49100 nM.
With `O=C(c1cc(C(F)(F)F)n[nH]1)N(Cc1cccc2[nH]cnc12)CC1CCC1` [Compound 123], the AC50 came to 828 nM and the “Max. Resp. (%)” value is 100%.
As to `Nc1cccc(Cl)c1CN(CCN1CCS(=O)(=O)CC1)C(=O)c1cc(C(F)(F)F)n[nH]1` [Compound 224], the “Max. Resp. (%)” value is given as 100%. For the same compound, under setting [1], the AC50 was determined as 410 nM.
Take `O=C(c1cc(Br)n[nH]1)N(Cc1ccc(O)cc1F)CC1CCC1` [Compound 245]: the “Max. Resp. (%)” value stood at 100%. In addition, the AC50 under setting [1] worked out at 35 nM.
On to `O=C(c1cc(C(F)(F)F)n[nH]1)N(CCC1CCCO1)Cc1ccccc1F` (stereo not drawn) [Compound 46], for which the “Max. Resp. (%)” value is recorded as 70%. Besides, under setting [1], the half-maximal activity concentration (AC50) amounted to 13400 nM.
Turning to `CC1CCCCN1CCN(Cc1cc(N)ccc1Cl)C(=O)c1cc(C(F)(F)F)n[nH]1` (stereo not drawn) [Compound 202], the “Max. Resp. (%)” value came out at 100%. Besides, the concentration at half-maximal activity (AC50) under setting [1] was determined as 395 nM.
For `O=C(CCSC(=S)NCc1cccnc1)c1ccc([N+](=O)[O-])cc1` [PMA13], the “Max. Resp. (%)” value was determined as 49%. For the same compound, under setting [1], the concentration at half-maximal activity (AC50) was 2760 nM.
On to `O=C(c1cc(C(F)(F)F)n[nH]1)N(CCN1CCCCCC1)Cc1c(F)cccc1F` [Compound 198], for which the “Max. Resp. (%)” value turned out to be 100%. Further, the AC50 under setting [1] stood at 130 nM.
The like results for `O=C(c1cc(C(F)(F)F)n[nH]1)N(Cc1ccccc1F)C1CCOCC1` [Compound 22] were, in that order, 99% and 1520 nM.
For the compound `O=C(c1cc(C(F)(F)F)n[nH]1)N(CCN1CCCCC1)Cc1c(F)cccc1Cl` [Compound 179], the “Max. Resp. (%)” value is 100%. Moreover, under setting [1], the AC50 came out at 133 nM.
Consider `Cc1cn2c(=O)cc(Cn3cnc4ccccc43)nc2s1` [PP17], for which the AC50 under setting [1] is 466 nM.
For the compound `CC(CN(Cc1ccccc1Cl)C(=O)c1cc(C(F)(F)F)n[nH]1)N1CCCC1` (stereo not drawn) [Compound 181], the “Max. Resp. (%)” value is 100%. Also, the AC50 under setting [1] worked out at 430 nM.
As to `CCN(CCN(Cc1ccccc1Cl)C(=O)c1cc(C(F)(F)F)n[nH]1)C(C)C` [Compound 204], the “Max. Resp. (%)” value stood at 53%. The AC50 under setting [1] came to 880 nM.
The like results for `O=C(c1cc(C(F)(F)F)n[nH]1)N(CCN1CCCCCC1)Cc1cccc2nc[nH]c12` [Compound 208] were, in that order, 100% and 125 nM.
Regarding `O=C(CCSC(=S)NCc1cccnc1)c1cnc2ccccn12` [PMA33], the “Max. Resp. (%)” value amounted to 101%. Besides, the AC50 under setting [1] is 18100 nM.
In the same order, the values of `O=C(c1cc(C(F)(F)F)n[nH]1)N(CCC1CCS(=O)(=O)CC1)Cc1c(F)cccc1F` [Compound 85] are 100% and 64 nM.
`Nc1cccc(Cl)c1CN(CCN1CCCOCC1)C(=O)c1cc(C(F)(F)F)n[nH]1` [Compound 239]: half-maximal activity (AC50) was put at 115 nM and the “Max. Resp. (%)” value is 100%.
Consider `CCN(CC)CCN(Cc1ccccc1Cl)C(=O)c1[nH]nc(Cl)c1F` [Compound 193], for which the “Max. Resp. (%)” value amounted to 58%. In addition, the AC50 under setting [1] was determined as 14000 nM.
Regarding `O=C(CCSC(=S)NCc1cccnc1)c1ccc(C(F)(F)F)cc1` [PMA17], the “Max. Resp. (%)” value is reported as 23%. The AC50 under setting [1] is above 20000 nM.
For `O=C(c1cc(C(F)(F)F)n[nH]1)N(CCN1CCCC1)Cc1cccc2[nH]cc(F)c12` [Compound 206], the “Max. Resp. (%)” value stood at 100%. Also, the AC50 under setting [1] came out at 136 nM.
`O=C(c1cc(C(F)(F)F)n[nH]1)N(Cc1ccccc1F)c1ncco1` [Compound 25]: the “Max. Resp. (%)” value stood at 35%. For the same compound, the concentration at half-maximal activity (AC50) under setting [1] worked out at 53000 nM.
As to `O=C(c1cc(Br)n[nH]1)N(Cc1ccc(O)cc1F)CC1CNC1` [Compound 11], the half-maximal activity concentration (AC50) amounted to 10400 nM and the “Max. Resp. (%)” value came out at 61%.
As to `O=C(c1cc(C(F)(F)F)n[nH]1)N(CCC1CCS(=O)(=O)CC1)Cc1ccccc1Cl` [Compound 75], the “Max. Resp. (%)” value was determined as 102%. The AC50 under setting [1] was found to be 188 nM.
In the case of `Nc1cccc(Cl)c1CN(CCN1CC[C@H](F)C1)C(=O)c1cc(C(F)(F)F)n[nH]1` [Compound 241], the activity was half-maximal at 125 nM (AC50) and the “Max. Resp. (%)” value is on record as 100%.
Turning to `O=C(c1cc(C(F)(F)F)n[nH]1)N(CCC1CCS(=O)(=O)C1)Cc1ccccn1` (stereo not drawn) [Compound 88], the “Max. Resp. (%)” value is given as 96%. In addition, the half-maximal activity concentration (AC50) under setting [1] came out at 3600 nM.
The like results for `CCN1CCC(N(Cc2ccccc2F)C(=O)c2cc(C(F)(F)F)n[nH]2)C1` (stereo not drawn) [Compound 152] were, in that order, 68% and 13500 nM.
For `Cc1sc2nc(Cn3cnc4ccccc43)cc(=O)n2c1C` [PP14], the AC50 under setting [1] worked out at 86 nM.
As to `O=C(c1cc(C(F)(F)F)n[nH]1)N(CCN1CCCCC1)Cc1c(Cl)cccc1Cl` [Compound 180], the “Max. Resp. (%)” value is given as 100%. Further, the AC50 under setting [1] is 154 nM.
The like results for `COc1cc(C(=O)CCSC(=S)NCc2cccnc2)cc(OC)c1OC` [PMA22] were, in that order, 131% and 10100 nM.
The like results for `CN1CCC(CCN(Cc2ccccc2Cl)C(=O)c2cc(C(F)(F)F)n[nH]2)CC1` [Compound 102] were, in that order, 71% and 767 nM.
The like results for `Nc1ccc(CN(CC2CCC2)C(=O)c2cc(C(F)(F)F)n[nH]2)c(Cl)c1` [Compound 134] were, in that order, 100% and 1080 nM.
With `O=C(c1cc(C(F)(F)F)n[nH]1)N(CCC1CCSCC1)Cc1ccc(O)cc1F` [Compound 86], the “Max. Resp. (%)” value was determined as 98%. Further, the AC50 under setting [1] turned out to be 93 nM.
Take `CCO[C@H]1CC[C@H](N(Cc2ccccc2F)C(=O)c2cc(C(F)(F)F)n[nH]2)CC1` [Compound 55]: the concentration at half-maximal activity (AC50) stood at 469 nM and the “Max. Resp. (%)” value is listed as 101%.
Consider `Cc1ccc2nc(Cn3c(C)nc4ccccc43)cc(=O)n2c1` [PP2], for which the “Max. Resp. (%)” value came to 73%.
For the compound `O=C(c1cc(C(F)(F)F)n[nH]1)N(Cc1ccccc1Cl)CC1COC1` [Compound 27], the activity was half-maximal at 33000 nM (AC50) and the “Max. Resp. (%)” value is on record as 47%.
Take `CCC1CCN(CCN(Cc2ccccc2Cl)C(=O)c2cc(C(F)(F)F)n[nH]2)CC1` [Compound 199]: the “Max. Resp. (%)” value is recorded as 100/100%. Also, the concentration at half-maximal activity (AC50) under setting [1] came out at 100 nM.
The like results for `CCN(CC)CCN(Cc1ccccc1Cl)C(=O)c1cc(C(F)(F)F)n[nH]1` [Compound 159] were, in that order, 100% and 73 nM.
For the compound `O=C(c1cc(C(F)(F)F)n[nH]1)N(CCN1CCCCCC1)Cc1cccc([N+](=O)[O-])c1Cl` [Compound 210], the activity was half-maximal at 133 nM (AC50) and the “Max. Resp. (%)” value stood at 100%.
Take `CCOCCN(Cc1ccccc1Cl)C(=O)c1cc(C(F)(F)F)n[nH]1` [Compound 29]: the “Max. Resp. (%)” value is recorded as 87%.
As to `NC1CC(N(Cc2ccccc2Cl)C(=O)c2cc(C(F)(F)F)n[nH]2)C1` (stereo not drawn) [Compound 226], the “Max. Resp. (%)” value is recorded as 80%. In addition, the concentration at half-maximal activity (AC50) under setting [1] came to 12000 nM.
Regarding `CCN(CC)CCN(Cc1cccc(N)c1)C(=O)c1cc(C(F)(F)F)n[nH]1` [Compound 154], the “Max. Resp. (%)” value is on record as 100%. Further, the AC50 under setting [1] worked out at 1430 nM.
On to `CNCc1c[nH]c2cccc(CN(CC3CCC3)C(=O)c3cc(Br)n[nH]3)c12` [Compound 121], for which the activity was half-maximal at 23000 nM (AC50).
On to `O=C(c1cc(C(F)(F)F)n[nH]1)N(CCN1CCS(=O)(=O)CC1)Cc1cccc(F)c1F` [Compound 111], for which the “Max. Resp. (%)” value amounted to 64%. For the same compound, the AC50 under setting [1] was 13100 nM.
The compound `O=C(c1cc(C2CC2)n[nH]1)N(CCC(F)(F)F)Cc1ccc(O)cc1F` [Compound 129] returned a concentration at half-maximal activity (AC50) of 10500 nM.
Consider `CN(C)Cc1c[nH]c2cccc(CN(CC3CCC3)C(=O)c3cc(Cl)n[nH]3)c12` [Compound 118], for which the “Max. Resp. (%)” value is recorded as 100%. Under setting [1], the AC50 was 7000 nM.
The like results for `Nc1ccc(Cl)c(CN(CCN2CCCCCC2)C(=O)c2cc(C(F)(F)F)n[nH]2)c1` [Compound 196] were, in that order, 100% and 99 nM.
In the same order, the values of `O=C(c1cc(C(F)(F)F)n[nH]1)N(Cc1ccccc1F)CC1CCS(=O)(=O)CC1` [Compound 71] are 71% and 10200 nM.
Consider `O=C(c1cc(C(F)(F)F)n[nH]1)N(CCC(F)(F)F)Cc1ccc(O)cc1F` [Compound 130], for which the “Max. Resp. (%)” value came to 100%. Besides, the AC50 under setting [1] was determined as 1000 nM.
In the case of `O=C(CCSC(=S)NCc1cccnc1)c1ccccc1Cl` [PMA19], the “Max. Resp. (%)” value amounted to 63%. For the same compound, the half-maximal activity concentration (AC50) under setting [1] is 5610 nM.
In the same order, the values of `O=C(c1cc(C(F)(F)F)n[nH]1)N(Cc1cccc(Cl)c1O)CC1CCC1` [Compound 141] are 100% and 6500 nM.
The like results for `O=C(c1cc(C(F)(F)F)n[nH]1)N(CCN1CCCCCC1)Cc1ccccc1Cl` [Compound 189] were, in that order, 100% and 24 nM.
Consider `Cn1cc(C(=O)c2cccc(Cl)c2Cl)cc1C(=O)NCCNC(=O)c1cc(C(=O)c2cccc(Cl)c2Cl)cn1C` [CA5], for which the AC50 under setting [1] is 14 nM.
For the compound `O=C(CCSC(=S)NCc1cccnc1)c1ccc[nH]1` [PMA27], the “Max. Resp. (%)” value is recorded as 126%. The AC50 under setting [1] is above 20000 nM.
In the same order, the values of `CC(C)OCCN(Cc1ccccc1Cl)C(=O)c1cc(C(F)(F)F)n[nH]1` [Compound 37] are 37% and 42000 nM.
As to `CCNCCN(Cc1ccccc1F)C(=O)c1cc(C(F)(F)F)n[nH]1` [Compound 155], the “Max. Resp. (%)” value stood at 100%. In addition, the AC50 under setting [1] is 2150 nM.
In the same order, the values of `O=C(c1cc(C(F)(F)F)n[nH]1)N(CCC1CCS(=O)(=O)C1)Cc1cccnc1` (stereo not drawn) [Compound 90] are 24% and 52000 nM.
Turning to `Cc1ccn2c(=O)cc(Cn3cnc4ccccc43)nc2c1` [PP9], the half-maximal activity concentration (AC50) under setting [1] stood at 216 nM.
